Values of other authors, collected in US20240361407A1, “SYSTEMS AND METHODS FOR GENERATION OF HYPERPOLARIZED MATERIALS” (priority 2021, published 2024).
≈ marks a conversion by molar mass, not a printed value.

Conditions: aqueous solution

SMILES: O=C(O)/C=C/C(=O)O [fumaric acid]
- solubility: 60 mM (≈ 6960 µg/mL)
